Our source for the inhibition values is paper PMC2923838 (Chemical research in toxicology, 2009).

The assay addresses D-amino acid oxidase (DAAO) (Sus scrofa, UniProt P00371). In words: […] benzoate with porcine DAAO and D-Trp in […] cells. It counts as cell-based. As to conditions: read-out: % attenuation at 20 mM.

Chain of D-amino acid oxidase (DAAO) (P00371 whole entry): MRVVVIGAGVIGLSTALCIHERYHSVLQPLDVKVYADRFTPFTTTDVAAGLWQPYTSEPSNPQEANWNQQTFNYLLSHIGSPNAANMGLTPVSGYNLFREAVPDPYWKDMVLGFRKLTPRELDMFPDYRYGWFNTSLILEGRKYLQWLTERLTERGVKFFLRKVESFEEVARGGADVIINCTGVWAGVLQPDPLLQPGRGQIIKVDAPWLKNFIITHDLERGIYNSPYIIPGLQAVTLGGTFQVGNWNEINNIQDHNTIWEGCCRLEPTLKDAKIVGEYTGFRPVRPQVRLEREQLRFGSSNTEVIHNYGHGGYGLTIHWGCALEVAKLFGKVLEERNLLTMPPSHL

With `O=C(O)c1ccccc1` [sodium benzoate], the inhibition at 20000 µM stood at 76%.
